Reference: paper PMC4657098, “A Review of the Updated Pharmacophore for the Alpha 5 GABA(A) Benzodiazepine Receptor Model” (International Journal of Medicinal Chemistry, 2015)
Where two headings read alike, the source gives them in different places.

What was measured:
α6β3γ2 GABAA/BzR [1] = target: T1, α6β3γ2 GABAA/BzR (Homo sapiens, UniProt P18507+Q16445); set-up: expressed in transfected cells; host or cells: LTK cells (given for XLi-093 only); details: Figure 33; αxβ3γ2; read-out: Affinity Ki α6; cited from earlier work
α4β3γ2 GABAA/BzR = target: T2, α4β3γ2 GABAA/BzR (Homo sapiens, UniProt P18507+P48169); details: Figure 33; αxβ3γ2; read-out: Affinity Ki α4; cited from earlier work
T2 construct: expressed in transfected cells; host or cells: LTK cells (given for XLi-093 only)

[2] = test system: Bz BS of GABA(A) receptors; details: cited from earlier work
[3] = test system: alcohol preferring and HAD rats; details: cited from earlier work
baboons = details: cited from earlier work
α6β3γ2 GABAA/BzR [4] = target: T1, α6β3γ2 GABAA/BzR; test: Competition binding to HEK cell membranes, α6β3γ2; set-up: expressed in transfected cells; details: Ki α6
α6β3γ2 BzR/GABA(A) = details: Figure 1; LTK cells; read-out: Binding affinity α6; cited from earlier work
α2β3γ2 BzR/GABA(A) = details: Figure 1; LTK cells; read-out: Binding affinity α2; cited from earlier work
α5β3γ2 BzR/GABA(A) = details: Figure 1; LTK cells; read-out: Binding affinity α5; cited from earlier work
α3β3γ2 BzR/GABA(A) = details: Figure 1; LTK cells; read-out: Binding affinity α3; cited from earlier work
α4β3γ2 BzR/GABA(A) = details: Figure 1; LTK cells; read-out: Binding affinity α4; cited from earlier work
α4β2γ2 GABAA receptor = target: T3, α4β2γ2 GABAA receptor (Homo sapiens, UniProt P18507+P48169); test: Radioligand binding (McKernan and Atack), α4β2γ2; details: Table 3; αxβ2γ2; means of two determinations; read-out: Binding affinity α4
T3 construct: expressed in transfected cells; host or cells: HEK cells
Procedure: (§1) Transfected HEK cells (beta2 gamma2 and desired alpha subtype) were harvested into phosphate-buffered saline, centrifuged at 3,000 g, and stored at −70°C until required. On the day of the assay, pellets were thawed and resuspended in sufficient volume of 50 mM Tris/acetate (pH 7.4 at 4°C) to give a total binding of approximately 1500–2000 dpm. […] Total assay volume was 0.5 mL and assays were carried out in 96-well plates and incubation time started by the addition of 0.1 mL of resuspended cell membranes. Following incubation for 1 hour at 4°C, assays were terminated by filtration through GF/B filters, washed with 10 mL ice cold buffer, dried, and then counted using a liquid scintillation counter. […] We have previously reported the synthesis of the following.

α5β2γ2 GABAA receptor = target: T4, α5β2γ2 GABAA receptor (Homo sapiens, UniProt P18507+P31644); test: Radioligand binding (McKernan and Atack), α5β2γ2; details: Table 3; αxβ2γ2; means of two determinations; read-out: Binding affinity α5
T4 construct: expressed in transfected cells; host or cells: HEK cells
Procedure: as §1

α2β2γ2 GABAA receptor = target: T5, α2β2γ2 GABAA receptor (Homo sapiens, UniProt P18507+P47869); test: Radioligand binding (McKernan and Atack), α2β2γ2; details: Table 3; αxβ2γ2; means of two determinations; read-out: Binding affinity α2
T5 construct: expressed in transfected cells; host or cells: HEK cells
Procedure: as §1

α6β2γ2 GABAA receptor = target: T6, α6β2γ2 GABAA receptor (Homo sapiens, UniProt P18507+Q16445); test: Radioligand binding (McKernan and Atack), α6β2γ2; details: Table 3; αxβ2γ2; means of two determinations; read-out: Binding affinity α6
T6 construct: expressed in transfected cells; host or cells: HEK cells
Procedure: as §1

α3β2γ2 GABAA receptor = target: T7, α3β2γ2 GABAA receptor (Homo sapiens, UniProt P18507+P34903); test: Radioligand binding (McKernan and Atack), α3β2γ2; details: Table 3; αxβ2γ2; means of two determinations; read-out: Binding affinity α3
T7 construct: expressed in transfected cells; host or cells: HEK cells
Procedure: as §1

α1β2γ2 GABAA receptor = target: T8, α1β2γ2 GABAA receptor (Homo sapiens, UniProt P14867+P18507); test: Radioligand binding (McKernan and Atack), α1β2γ2; details: Table 3; αxβ2γ2; means of two determinations; read-out: Binding affinity α1
T8 construct: expressed in transfected cells; host or cells: HEK cells
Procedure: as §1

CCCOc1cc2c(cn1)[nH]c1ccccc12.Cl [3 PBC, 3-propoxy-β-carboline hydrochloride]
Ki (α6β3γ2 GABAA/BzR [1]): > 1000 nM
Ki (α4β3γ2 GABAA/BzR): 1000 nM
modulation ([2]; Supplement Table 1): antagonist
pharmacological properties compared with classical benzodiazepine receptor antagonists [2]: near GABA neutral antagonists
rate at which rats self-administrated alcohol ([3]; alcohol preferring and HAD rats): reduce the rate
sucrose self-administration [3]: little or no effect
activity in baboons (baboons): active
Ki (α6β3γ2 GABAA/BzR [4]): 1000 nM

C#Cc1ccc2c(c1)C(=O)N(C)Cc1c(C(=O)OCC)ncn1-2 [RY-80 (3)]
Ki (α6β3γ2 BzR/GABA(A)): 28.8 nM
Ki (α2β3γ2 BzR/GABA(A)): 21.4 nM
Ki (α5β3γ2 BzR/GABA(A)): 0.49 nM
Ki (α3β3γ2 BzR/GABA(A)): 25.8 nM
Ki (α4β3γ2 BzR/GABA(A)): 5.3 nM

C#Cc1ccc2c(c1)C(c1ccccc1)=N[C@H](C)c1c(C(=O)OCC)ncn1-2 [SH-053-R-CH3, (15)]
Ki (α4β2γ2 GABAA receptor): > 5000 nM
Ki (α5β2γ2 GABAA receptor): 949 nM
Ki (α2β2γ2 GABAA receptor): 2380 nM
Ki (α6β2γ2 GABAA receptor): > 5000 nM
Ki (α3β2γ2 GABAA receptor): 1180 nM
Ki (α1β2γ2 GABAA receptor): 2030 nM

C#Cc1ccc2c(c1)C(c1ccccc1)=N[C@@H](C)c1c(C(=O)OCC)ncn1-2 [SH-053-S-CH3, (16)]
Ki (α4β2γ2 GABAA receptor): > 5000 nM
Ki (α5β2γ2 GABAA receptor): 206 nM
Ki (α2β2γ2 GABAA receptor): 1260 nM
Ki (α6β2γ2 GABAA receptor): > 5000 nM
Ki (α3β2γ2 GABAA receptor): 1250 nM
Ki (α1β2γ2 GABAA receptor): 1670 nM
